Assay [1] in a line: Inhibition of Trypanosoma cruzi G6PD.
A short description of assay [2]: Inhibition of Trypanosoma cruzi G6PD expressed in Escherichia coli BL21 (DE3) by G6PDH-diaphorase-resorufin coupled assay.
Assay [3] in a line: Inhibition of Plasmodium falciparum recombinant GluPho measured for 20 to 30 mins by multiwell plate reader method.
In a further assay the test system is Plasmodium falciparum. Kind of assay: Antimalarial activity against Plasmodium falciparum 3D7 incubated for 48 hrs followed by [3H]-hypoxanthine addition measured after 24 hrs by microdilution method. Type of assay: functional, organism-based. For orientation: Broth dilution looks for growth in wells or tubes with falling amounts of substance.
The target of assay [4] is T1, Glucose-6-phosphate 1-dehydrogenase (Homo sapiens, UniProt P11413). Kind of assay: Binding affinity to human G6PD.
A short description of assay [5]: Binding affinity to Plasmodium falciparum GluPho.
The nature of assay [6]: Selectivity index, ratio of Ki for human G6PD to Ki for Plasmodium falciparum GluPho.
The target in assay [7] is T1, Glucose-6-phosphate 1-dehydrogenase. Kind of assay: Inhibition of human C-terminal His tagged G6PD overexpressed in Escherichia coli BL21.
For assay [8] the target is unchanged. Put plainly: Inhibition of human G6PD.
Assay [9] is described as follows: Antiproliferative activity against human MCF10AT1 cells. It is filed as functional, cell-based.
The target in assay [10] is T1, Glucose-6-phosphate 1-dehydrogenase. Put plainly: Binding affinity to G6PD (unknown origin) assessed as Gibbs free energy.
A short description of assay [11]: Inhibition of Plasmodium falciparum GluPho.
Another assay relates to Trypanosoma cruzi. Put plainly: Trypanocidal activity against Trypanosoma cruzi assessed as lethal dose. Type of assay: functional. The conditions noted are these: read-out: LD50 (the source's name).
Assay [12] can be described thus: Inhibition of Plasmodium vivax G6PD.

T1 sequence (P11413 whole entry): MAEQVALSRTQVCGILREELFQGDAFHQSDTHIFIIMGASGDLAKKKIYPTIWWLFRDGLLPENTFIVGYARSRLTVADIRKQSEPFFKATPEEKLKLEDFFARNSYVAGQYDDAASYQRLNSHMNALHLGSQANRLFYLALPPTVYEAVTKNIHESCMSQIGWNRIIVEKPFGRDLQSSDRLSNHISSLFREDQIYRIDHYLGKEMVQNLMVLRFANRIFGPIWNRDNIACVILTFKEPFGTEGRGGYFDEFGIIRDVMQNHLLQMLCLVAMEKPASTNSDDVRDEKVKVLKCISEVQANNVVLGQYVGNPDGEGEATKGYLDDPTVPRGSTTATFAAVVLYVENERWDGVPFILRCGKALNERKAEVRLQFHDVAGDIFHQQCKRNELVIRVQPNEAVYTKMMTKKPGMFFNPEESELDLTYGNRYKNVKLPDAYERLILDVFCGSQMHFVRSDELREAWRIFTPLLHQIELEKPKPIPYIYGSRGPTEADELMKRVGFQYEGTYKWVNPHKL

For `Cc1ccc(Nc2ncc3c(n2)CCCC3=O)cc1`, the IC50 was 10 µM in assay [1] and 0.48 µM in [2].

Turning to `COc1ccc(-c2ccc(C=C3C(=O)NC(=O)NC3=O)o2)c([N+](=O)[O-])c1`, the IC50 in assay [3] was found to be 4.6 µM.

As for `CCN1CCC[C@@H]1CNC(=O)c1ccc2c(c1)NC(=O)/C(=C/c1ccccc1F)S2`, the IC50 with Plasmodium falciparum was 2.3 µM.

Consider `CO[C@H]1O[C@H](CS(=O)(=O)CCN)[C@@H](O)[C@H](O)[C@H]1O`, for which the Ki in assay [4] is more than 400 µM; in assay [5], 22.8 µM. For the same compound, the Ratio Ki in [6] is more than 18.

On to `Cc1cccc(Nc2ncc3c(n2)CCCC3=O)c1`, for which the IC50 in assay [1] amounted to 0.63 µM.

Take `CO[C@H]1O[C@H](CS(=O)(=O)CCCN)[C@@H](O)[C@H](O)[C@H]1O`: the inhibition constant (Ki) in assay [5] worked out at 34.4 µM. Besides, the Ratio Ki in assay [6] was 1.

Take `O=S(=O)(Nc1ccc(O)c2ccccc12)c1ccc(F)cc1`: the half-maximal inhibitory concentration (IC50) in [3] is 30 µM; in the assay on Plasmodium falciparum, 3.9 µM.

As for `O=c1c2ccccc2nc(-c2cccnc2)n1-c1ccc(Br)cn1`, the IC50 turned out to be 4.5 µM in [3], 2.6 µM in [7] and 2.6 µM in assay [8].

On to `CO[C@H]1O[C@H](CS(=O)(=O)CCNC(=N)N)[C@@H](O)[C@H](O)[C@H]1O`, for which the inhibitory constant (Ki) is 16.8 µM in assay [4] and 32.4 µM in [5]. For the same compound, the Ratio Ki in assay [6] stood at 0.5.

For `COc1ccc(N2CCN(c3nc(C)c4c(n3)CCCC4=O)CC2)cc1`, the IC50 in assay [2] is 0.61 µM.

Take `Cc1ccc(C)c(S(=O)(=O)Nc2ccc(O)c3ccccc23)c1`: the concentration for half-maximal inhibition (IC50) in assay [3] turned out to be 22 µM; in the assay on Plasmodium falciparum it was 5.3 µM; in assay [7], 0.2 µM; in assay [9], 25 µM.

With `O=C(Nc1ccc(Cl)cc1)Nc1ncc([N+](=O)[O-])s1`, in assay [10], the deltaG was -6.91 kcal/mol.

Regarding `Cc1cccc(N2C(=O)NC(=O)/C(=C/c3ccc(-c4ccc([N+](=O)[O-])cc4C)o3)C2=O)c1`, the IC50 in assay [3] was determined as 5.1 µM.

On to `CO[C@H]1O[C@H](CSCCN)[C@@H](O)[C@H](O)[C@H]1O`, for which the Ratio Ki in assay [6] is 26.

Turning to `O=C1NC(=O)N(c2ccc(O)cc2)C(=O)/C1=C\c1ccc(-c2ccccc2[N+](=O)[O-])o1`, the IC50 in [3] was 19.9 µM.

Compound `CCCCCCCn1cnc2sc(C(N)=O)c(C)c2c1=O` returned an IC50 in assay [2] of 4.9 µM.

`CO[C@H]1O[C@H](CSCCNC(=N)N)[C@@H](O)[C@H](O)[C@H]1O` came in with a Ki in [5] of 45.6 µM. Besides, in [6], the Ratio Ki is more than 4.4.

`CO[C@H]1O[C@H](CSCCC#N)[C@@H](O)[C@H](O)[C@H]1O` displayed a Ki in assay [5] of 259 µM. In addition, the Ratio Ki in assay [6] is more than 0.8.

The compound `O=C(Cn1ccnc1[N+](=O)[O-])NCc1ccccc1` [BENZNIDAZOLE] yielded an IC50 in [1] of 8.5 µM.

Regarding `CO[C@H]1O[C@H](CSCCCN)[C@@H](O)[C@H](O)[C@H]1O`, the affinity in assay [5], expressed as Ki, was 289 µM. Besides, in assay [6], the Ratio Ki turned out to be 0.4.

Turning to `CC(C)(C)c1ccc(Oc2ccc(N)cn2)cc1` [LIMANTRAFIN], the figures for the half-inhibitory concentration (IC50) (in assay [3]; in the assay with Plasmodium falciparum) were 1.5 µM and 0.97 µM, respectively.

In assay [7], `O=C1Nc2ccc(Br)cc2/C1=C1/SC(=S)N(C(Cc2ccccc2)C(=O)O)C1=O` (stereo unspecified) displayed an IC50 of 3.1 µM.

With `COc1cc(/C=C2\C(=O)N(c3nc(-c4ccc(Cl)cc4)cs3)N=C2C)cc(OC)c1OC`, the results for the half-inhibitory concentration (IC50) in [11] and in assay [7] were 1.7 µM and 0.6 µM, respectively.

`C[C@]12CC[C@H](O)C[C@@H]1CC[C@@H]1[C@@H]2CC[C@]2(C)C(=O)[C@H](Br)C[C@@H]12` [16.ALPHA.-BROMOEPIANDROSTERONE] displayed a half-maximal inhibitory concentration (IC50) in assay [1] of 0.086 µM. For the same compound, the LC50 with Trypanosoma cruzi was 12 µM.

`CO[C@H]1O[C@H](CS(=O)(=O)CCCNC(=N)N)[C@@H](O)[C@H](O)[C@H]1O` gave an inhibitory constant (Ki) in [5] of 42.9 µM. In addition, the Ratio Ki in [6] came out at 0.5.

Compound `CO[C@H]1O[C@H](CS(=O)(=O)CCC#N)[C@@H](O)[C@H](O)[C@H]1O` registered a Ki in assay [5] of 68.8 µM. Further, the Ratio Ki in assay [6] is more than 2.9.

With `COc1ccc(-n2c(-c3cccnc3)nc3ccccc3c2=O)cc1`, the values for the IC50 in assay [3], in [7] and in assay [8] were 7.6 µM, 3 µM and 3 µM, respectively.

For the compound `CCN1CCC[C@@H]1CNC(=O)c1ccc2c(c1)NC(=O)c1cccc(C)c1S2`, the half-maximal inhibitory concentration (IC50) in [11] amounted to 0.19 µM; in assay [12], 15.3 µM.

The term IC50 denotes the concentration that gives 50% inhibition. In general, Ki refers to the equilibrium dissociation constant of an inhibitor or competing ligand from its target. Lower therefore signals tighter binding.

These data come from ChEMBL document CHEMBL5120775, “Boosting the Discovery of Small Molecule Inhibitors of Glucose-6-Phosphate Dehydrogenase for the Treatment of Cancer, Infectious Diseases, and Inflammation” (J Med Chem, 2022).
